Experimental data published in PubChem BioAssay (NCI).
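How tested: cells in 96-well plates exposed to compound for 48 hours at five concentrations. GI50 is the concentration that inhibits growth by half. TGI is the concentration that stops growth completely.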

Assays:
Assay in all cases: DTP human tumour cell line panel, 48 h
KM12 colon = test system: KM12 colon
NCI-H23 lung = test system: NCI-H23 lung
RXF 393 renal = test system: RXF 393 renal
ACHN renal = test system: ACHN renal
A498 renal = test system: A498 renal
NCI-H226 lung = test system: NCI-H226 lung
SF-268 CNS = test system: SF-268 CNS
K-562 leukemia = test system: K-562 leukemia
SF-539 CNS = test system: SF-539 CNS
MOLT-4 leukemia = test system: MOLT-4 leukemia

| SMILES | GI50 (KM12 colon) [µM] | TGI (KM12 colon) [µM] | GI50 (NCI-H23 lung) [µM] | TGI (NCI-H23 lung) [µM] | GI50 (RXF 393 renal) [µM] | TGI (RXF 393 renal) [µM] | GI50 (ACHN renal) [µM] | TGI (ACHN renal) [µM] | GI50 (A498 renal) [µM] | TGI (A498 renal) [µM] | GI50 (NCI-H226 lung) [µM] | TGI (NCI-H226 lung) [µM] | GI50 (SF-268 CNS) [µM] | TGI (SF-268 CNS) [µM] | GI50 (K-562 leukemia) [µM] | TGI (K-562 leukemia) [µM] | GI50 (SF-539 CNS) [µM] | TGI (SF-539 CNS) [µM] | TGI (MOLT-4 leukemia) [µM] | GI50 (MOLT-4 leukemia) [µM] |
| --- | --- | --- | --- | --- | --- | --- | --- | --- | --- | --- | --- | --- | --- | --- | --- | --- | --- | --- | --- | --- |
| COc1cccc2c1cc1c3c(cc4c(c32)OCO4)C(=O)N1 | 4.09 | 23.7 | 3.45 | 13.4 | 2.04 | 5.5 | 3.76 | 15.4 | 0.0914 | 4 | 5.8 | 54 | 6.07 | 96.3 | 8.89 | > 100 | 4.8 | 21.2 |  |  |
| Cn1nc(-c2ccccc2)c(C(=O)/C=C/c2ccc(Cl)cc2)c(N2CCCC2)c1=O |  |  |  | 10.6 |  | 8.52 |  | 3.34 |  |  |  |  |  | 20.2 |  | 9.06 |  | 13.2 | 6.66 |  |
| Cc1ccc2nc(NC(=O)C(=O)CC(=O)c3cccc4ccccc34)sc2c1 |  | > 100 |  | > 100 |  |  |  | > 100 |  | > 100 |  | > 100 |  | > 100 |  | > 100 |  | 61.6 | > 100 |  |
| COC(=O)C(=O)C(C(=O)C(=O)Nc1cc(Cl)c(Cl)cc1Cl)c1nc2ccc([N+](=O)[O-])cc2[nH]c1=O (stereo unspecified) |  | > 100 |  | > 100 |  | > 100 |  | > 100 |  |  |  | > 100 |  | > 100 |  | > 100 |  | > 100 | > 100 |  |
| CC(=O)[C-](C(C)=O)c1ccccc1.CC(=O)[C-](C(C)=O)c1ccccc1.CC(=O)[C-](C(C)=O)c1ccccc1.[Cl-].[Zr+4] | > 100 | > 100 | > 100 | > 100 | 28.1 | 98.3 |  |  | > 100 | > 100 | > 100 | > 100 | 61.7 | > 100 | > 100 | > 100 | 86.7 | > 100 | > 100 | > 100 |
| C/C(=N/O)c1ccc(Nc2cc(-n3ccnc3)c3ccccc3n2)cc1 | 2.64 | 18.5 | 42 | > 100 |  |  | 18.6 | 90.8 | 27.6 | 94 | 30 | 89 | > 100 | > 100 | 3.27 | > 100 | 11.5 | > 100 | 18.5 | 2.95 |
| O=C(Nc1nc2ccccc2s1)c1cc(-c2ccc(F)cc2)n2nc(-c3ccccc3)cc2n1 |  |  | 2.81 | > 100 | 2.53 | 6.43 |  |  | 1.86 | 5.49 | 6.31 | > 100 | 3.89 | > 100 | 4.25 | 15.3 |  |  | 71.7 | 21 |
| CC(C(N)=O)N(C)C(=O)c1cnc2ccccc2c1 (stereo unspecified) |  | > 100 |  |  |  | > 100 |  | > 100 |  | > 100 |  | > 100 |  |  |  | > 100 |  | > 100 | > 100 |  |
| CCc1cc(Cc2ccc(C)c(NC(=O)C(=O)C3C(=O)NC(=O)NC3=O)c2CC)cc(C)c1NC(=O)C(=O)C1C(=O)NC(=O)NC1=O |  | > 100 |  | > 100 |  | > 100 |  | > 100 |  | > 100 |  |  |  | > 100 |  | > 100 |  | > 100 | > 100 |  |
| CCOC(=O)CC(NC(=O)c1ccc(N=NN(C)C)cc1)C(=O)OCC (stereo unspecified) |  | > 100 |  | > 100 |  |  |  | > 100 |  | > 100 |  | > 100 |  | > 100 |  | > 100 |  | > 100 | > 100 |  |
| CC(=O)c1c2c(cc3c1CC1(C3)Cc3cc4c(c(C(=O)O)c3C1)CCC4)CCC2 (stereo unspecified) |  | > 100 |  | 66.8 |  | > 100 |  | > 100 |  |  |  |  |  | > 100 |  | 97.8 |  | 59.6 | 71.3 |  |
| COc1ccc(NC(=O)C2C(=O)N(c3ccc(OC)cc3)C(=O)/C2=N\NC(N)=O)cc1 (stereo unspecified) |  | 43.2 |  | > 100 |  | 56.7 |  | 82.5 |  | 45 |  | 51.7 |  | 63.9 |  | > 100 |  | 30.8 |  |  |
| CCCCNC1=C(C(=O)OCC)/C(=N/NC(=O)c2ccccc2O)CO1 |  | > 100 |  | > 100 |  | > 100 |  |  |  | > 100 |  | > 100 |  | > 100 |  | > 100 |  | > 100 | > 100 |  |
| CCCCCCCCCCCCCCCCOCC(O)CO (stereo unspecified) |  | 32.1 |  | 37.2 |  | 35.7 |  | 33.6 |  | 34.5 |  | 40 |  | 36 |  |  |  | 31.5 | 29.6 |  |
| NNC(=O)C(O)C(O)C(=O)NN (stereo unspecified) |  | > 100 |  | > 100 |  | > 100 |  | > 100 |  | > 100 |  | > 100 |  | > 100 |  | > 100 |  |  | > 100 |  |
| O=C1C=Cc2ncccc2C1=O |  | > 58.5 |  | 39.6 |  | 35.9 |  | 50.6 |  | > 91.5 |  | > 58.7 |  | > 59.2 |  | 26.4 |  | 40.5 |  |  |
| CCCCCCCCCCCCCCCCCC(=O)NCC(COP(=O)(O)O)OCC (stereo unspecified) |  | 58.3 |  | 30.1 |  |  |  |  |  | > 100 |  | 58.4 |  | 61.2 |  | > 100 |  | > 100 | > 100 |  |
| CN1CCN(c2ccc3nc(-c4ccc(OCCCCN5CCN(CCCCN6C(=O)c7cccc8cccc(c78)C6=O)CC5)cc4)[nH]c3c2)CC1 | 43.8 | > 100 | > 100 | > 100 |  |  | 25.6 | 64.1 | > 100 | > 100 | 37.6 | > 100 | > 100 | > 100 | > 100 | > 100 | 33.5 | > 100 | > 100 | 51.1 |
| Nc1ccn(C2OC(C(OC3OC(CO)C(O)C(N)C3O)C(O)C(O)C(O)C(O)CO)C(N)C(O)C2O)c(=O)n1 (stereo unspecified) |  | > 100 |  | > 100 |  |  |  | > 100 |  | > 100 |  |  |  | 68.6 |  |  |  | 78.6 | > 100 |  |
| COc1cc2c(cc1OCCCOc1ccc(-c3nc4ccc(N5CCN(C)CC5)cc4[nH]3)cc1)N=C[C@@H]1CCCN1C2=O | < 0.01 |  | < 0.01 | < 0.01 | < 0.01 | < 0.01 |  |  | < 0.01 | < 0.01 | < 0.01 | < 0.01 | < 0.01 |  | < 0.01 | 0.818 | < 0.01 | < 0.01 | < 0.01 | < 0.01 |
